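48-hour exposure; five concentrations; linearly interpolated endpoints. GI50 = concentration required for 50% inhibition of growth. Definition used: TGI = concentration required for complete inhibition of growth.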
Experiments:
Experiment in all cases: inhibition of tumour cell growth, NCI panel, 48 h
A549 NSCLC = system: A549 NSCLC
CAKI-1 renal = system: CAKI-1 renal
HCC-2998 colon = system: HCC-2998 colon
NCI-H226 lung = system: NCI-H226 lung
NCI-H23 lung = system: NCI-H23 lung
NCI-H460 lung = system: NCI-H460 lung
OVCAR-8 ovarian = system: OVCAR-8 ovarian
SK-MEL-28 melanoma = system: SK-MEL-28 melanoma
SR leukemia = system: SR leukemia
UACC-257 melanoma = system: UACC-257 melanoma

| SMILES | GI50 (A549 NSCLC) [µM] | TGI (A549 NSCLC) [µM] | GI50 (CAKI-1 renal) [µM] | TGI (CAKI-1 renal) [µM] | GI50 (HCC-2998 colon) [µM] | TGI (HCC-2998 colon) [µM] | GI50 (NCI-H226 lung) [µM] | TGI (NCI-H226 lung) [µM] | GI50 (NCI-H23 lung) [µM] | TGI (NCI-H23 lung) [µM] | GI50 (NCI-H460 lung) [µM] | TGI (NCI-H460 lung) [µM] | GI50 (OVCAR-8 ovarian) [µM] | TGI (OVCAR-8 ovarian) [µM] | GI50 (SK-MEL-28 melanoma) [µM] | TGI (SK-MEL-28 melanoma) [µM] | GI50 (SR leukemia) [µM] | TGI (SR leukemia) [µM] | GI50 (UACC-257 melanoma) [µM] | TGI (UACC-257 melanoma) [µM] |
| --- | --- | --- | --- | --- | --- | --- | --- | --- | --- | --- | --- | --- | --- | --- | --- | --- | --- | --- | --- | --- |
| O=C1c2cccc3cccc(c23)C(=O)N1CCCCN1CCN(CCCCOc2ccc(-c3nc4ccc(N5CCOCC5)cc4[nH]3)cc2)CC1 | > 100 | > 100 | > 100 | > 100 | > 100 | > 100 | > 100 | > 100 | > 100 | > 100 | > 100 | > 100 | 8.8 | > 100 | 66 | > 100 | 1.68 | 3.9 | 15 | > 100 |
| COc1ccc(Cn2cnc3cc(C(=O)Nc4cccc5ccccc45)ccc32)c(OC)c1 | 0.0644 | > 100 | 0.0387 | > 100 | 0.197 | 14.6 | 0.111 | > 100 | 0.0898 | > 100 | 0.0363 | 1.21 | 0.0603 | > 100 | 1.63 | > 100 | 0.0228 | > 100 | 39 | > 100 |
| O=c1[nH]ccc2nc(-c3ccc(CN4CCC(c5nc(-c6ccccn6)n[nH]5)CC4)cc3)c(-c3ccccc3)cc12 | 16.2 | > 100 |  |  | 22.2 | > 100 | 19 | > 100 | 42.4 | > 100 | 1.15 | > 100 | 20 | > 100 | 16.8 | > 66.1 | 2.34 | 66 | 14.8 | 51.3 |
| O=C1/C(=C/c2ccc(Cl)cc2)CN(Cc2cn(CCNc3ccnc4cc(Cl)ccc34)nn2)C/C1=C\c1ccc(Cl)cc1 | 0.284 | 0.834 | 0.346 | 1.57 | 0.246 | 0.563 | 0.84 | 2.69 | 0.761 | 2.31 | 0.247 | 0.602 | 0.367 | 1.43 | 1.4 | 2.81 | 0.245 | 0.815 | 1.59 | 3.02 |
| N#Cc1c(-c2ccc(Cl)cc2)c(-c2ccc(Cl)cc2)nn(CCOC(=O)CCC(=O)O)c1=O |  | > 88.6 |  | 22.9 |  | 16.1 |  | 1.42 |  | 19.6 |  | 32.5 |  | > 78.4 |  | > 85.6 |  | 25.6 |  | > 100 |
| Cn1cnc([N+](=O)[O-])c1Sc1nc2cccnc2s1 |  | > 100 |  | 21 |  | 30.9 |  | 36.5 |  |  |  | > 100 |  | 90.1 |  | 30.8 |  | 37.1 |  | 27.9 |
| COC(=O)c1cc2c3ccccc3n3c(=O)c4cc5cc(OC)c(N(S(=O)(=O)c6ccc(C)cc6)S(=O)(=O)c6ccc(C)cc6)cc5nc4c(n1)c23 | > 100 | > 100 | > 100 | > 100 | > 100 | > 100 | 23.9 | > 100 | 16.7 | 63.2 | > 100 | > 100 | 67.9 | > 100 | > 100 | > 100 | 41.4 | > 100 | > 100 | > 100 |

Reference: PubChem BioAssay (NCI)
